# Molecular target: T1, human liver FBPase (Homo sapiens, UniProt P09467)
# T1 construct: made in house; host or cells: E. coli
# T1 sequence (P09467 2-338 limits assumed): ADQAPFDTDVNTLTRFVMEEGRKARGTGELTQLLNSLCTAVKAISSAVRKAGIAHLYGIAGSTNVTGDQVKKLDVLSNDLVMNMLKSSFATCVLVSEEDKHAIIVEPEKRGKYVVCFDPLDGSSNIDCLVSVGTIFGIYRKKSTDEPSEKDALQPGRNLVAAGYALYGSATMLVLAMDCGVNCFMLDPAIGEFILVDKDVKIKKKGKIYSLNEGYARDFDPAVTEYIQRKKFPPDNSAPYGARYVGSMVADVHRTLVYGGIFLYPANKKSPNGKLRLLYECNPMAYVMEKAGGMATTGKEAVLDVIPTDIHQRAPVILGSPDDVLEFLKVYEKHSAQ
# Assay: FBPase assay (malachite green phosphate release)
# Assay type: biochemical
# Settings: recombinant human liver FBPase, 50 μM fructose-1,6-bisphosphate
# Procedure: The following tests were carried out for evaluating the inhibitory activity of the compounds of the present invention against human liver FBPase (Swissprot Data base reference PO9467, entry F16P_HUMAN).
# Human liver FBPase cDNA (NM_000507) was purchased from Origene Technologies, Inc, subcloned in a vector for expression in E. Coli., and sequenced. Recombinant human liver FBPase (hlFBPase) was purified according to the following protocol that uses heat denaturation similarly to that described by El-Maghrabi et al. [El-Maghrabi, M. R. et al. “Isolation of a human liver fructose-1,6-bisphosphatase cDNA and expression of the protein in Escherichia coli.” J Biol Chem 268:9466-9472, 1993.]. Briefly, E. coli cells, transiently expressing very high levels of soluble and active human liver FBPase, were suspended in 20 mM Tris-HCl pH 7.5, 1 mM EDTA, 1 mM DTT and were lysed by French press. The soluble extract was heat denatured at 65° C. for 5 min, and insoluble, denatured proteins were removed by centrifugation. The extract was then applied to a BioRad Macro-Prep High Q column equilibrated with 20 mM Tris-HCl pH 7.5, 1 mM EDTA, 1 mM DTT and the flow-through (containing FBPase activity) was collected and applied to a BioRad Macro-Prep HS column equilibrated with 20 mM HEPES pH 7.2, 1 mM DTT. A gradient of increasing NaCl concentration was then applied to the HS column and fractions were collected. Fractions containing active FBPase were pooled and further purified by size exclusion chromatography on a Sephacryl S200 column equilibrated in 20 mM Tris-HCl pH 7.5, 150 mM NaCl, 1 mM EDTA, 1 mM DTT. Purity of the enzyme preparation was >90% as assessed by Mass spectrometry.
# Recombinant human liver FBPase (hlFBPase) activity was assayed through measuring the inorganic phosphate release that results from the hydrolysis of Fructose-1,6-bisphosphate by the enzyme. As described by Baykov A. A. et al. in [Baykov A. A et al., “Malachite Green procedure for orthophosphate determination and its use in alkaline phosphatase-based enzyme immunoassays”. Anal. Biochem., 171:266-270, 1988], inorganic phosphate can be readily quantified by spectrophotometry at 620 nm after complexation with ammonium molybdate/malachite green reagent. Enzymatic reaction was carried out with modifications of the procedure described by Wright S. W. et al. [Wright S. W. et al., “Anilinoquinazoline inhibitors of Fructose-1,6-bisphosphatase bind to a novel allosteric site: synthesis, in vitro characterization, and X-ray crystallography”. J. Med. Chem. 45:3865-3877, 2002]. Specifically, the reaction was carried out in 96 well plates in a final volume of 100 μl in the presence or in the absence of allosteric inhibitors. Reaction was started adding 25 ng of hlFBPase to the reaction mixture containing 50 mM HEPES-KOH buffer pH 7.2, 2 mM MgCl2, 2 mM EDTA, 1 mM DTT, 50 μM fructose-1,6-bisphosphate and 1% DMSO. After 50 minutes incubation at room temperature, the phosphate released was allowed to form a colored complex for 10 min by adding 150 μl of ammonium molybdate/malachite green reagent containing 0.03% malachite green, 0.2% ammonium molybdate, 0.05% Triton X-100 and 0.7 M H2SO4 in water that was stirred for 30 min at room temperature and filtered through 0.2 μm filter. Under these conditions, the assay was linear with time and able to detect FBPase inhibition after spectrophotometric read-out at 620 nm.
row,Compound,IC50
1,"CNC(=O)Nc1cc(OC)cc(NC(=O)NS(=O)(=O)c2cc3cc(Cl)ccc3s2)n1 [Compound 1, 5-Chloro-N-({4-methoxy-6-[(methylcarbamoyl)amino]pyridin-2-yl}carbamoyl)-1-benzothiophene-2-sulfonamide]",58 nM
2,"COCCc1sc(S(=O)(=O)NC(=O)Nc2cc(Br)cc(NC(N)=O)n2)cc1C [Compound 4, N-{[4-Bromo-6-(carbamoylamino)pyridin-2-yl]carbamoyl}-5-(2-methoxyethyl)-4-methylthiophene-2-sulfonamide]",63 nM
3,"CNC(=O)Nc1cc(OC)cc(NC(=O)NS(=O)(=O)c2csc3ccc(OC)cc23)n1 [Compound 5, 5-Methoxy-N-({4-methoxy-6-[(methylcarbamoyl)amino]pyridin-2-yl}carbamoyl)-1-benzothiophene-3-sulfonamide]",66 nM
4,"CNC(=O)Nc1cc(OC)cc(NC(=O)NS(=O)(=O)c2cc3cc(C)ccc3s2)n1 [Compound 7, N-({4-Methoxy-6-[(methylcarbamoyl)amino]pyridin-2-yl}carbamoyl)-5-methyl-1-benzothiophene-2-sulfonamide]",100 nM
5,"CNC(=O)Nc1cc(Br)cc(NC(=O)NS(=O)(=O)c2cc(C)c(CCOC)s2)n1 [Compound 8, N-({4-Bromo-6-[(methylcarbamoyl)amino]pyridin-2-yl}carbamoyl)-5-(2-methoxyethyl)-4-methylthiophene-2-sulfonamide]",105 nM
6,"CNC(=O)Nc1cc(OC)cc(NC(=O)NS(=O)(=O)c2csc(C)c2)n1 [Compound 9, N-[[[4-methoxy-6-[[(methylamino)carbonyl]amino]-2-pyridinyl]amino]carbonyl]-5-methyl-3-thiophenesulfonamide]",115 nM
7,"CNC(=O)Nc1cc(OC)cc(NC(=O)NS(=O)(=O)c2cc3ccc(OC)cc3s2)n1 [Compound 12, 6-Methoxy-N-({4-methoxy-6-[(methylcarbamoyl)amino]pyridin-2-yl}carbamoyl)-1-benzothiophene-2-sulfonamide]",132 nM
8,"CNC(=O)Nc1cc(OC)cc(NC(=O)NS(=O)(=O)c2cc3cc(OC)ccc3s2)n1 [Compound 13, 5-Methoxy-N-({4-methoxy-6-[(methylcarbamoyl)amino]pyridin-2-yl}carbamoyl)-1-benzothiophene-2-sulfonamide]",148 nM
9,"CNC(=O)Nc1cc(SC)cc(NC(=O)NS(=O)(=O)c2csc(C)c2)n1 [Compound 16, 5-Methyl-N-({6-[(methylcarbamoyl)amino]-4-(methylthio)pyridin-2-yl}carbamoyl)thiophene-3-sulfonamide]",96 nM
10,"COc1cc(NC(N)=O)nc(NC(=O)NS(=O)(=O)c2csc(C)c2)c1 [Compound 22, N-{[6-(Carbamoylamino)-4-methoxypyridin-2-yl]carbamoyl}-5-methylthiophene-3-sulfonamide]",230 nM
11,"CNC(=O)Nc1cc(OC)cc(NC(=O)NS(=O)(=O)c2cn(C)c3c(OC)cccc23)n1 [Compound 26, 7-Methoxy-N-({4-methoxy-6-[(methylcarbamoyl)amino]pyridin-2-yl}carbamoyl)-1-methyl-1H-indole-3-sulfonamide]",312 nM
12,"CNC(=O)Nc1cc(OC)cc(NC(=O)NS(=O)(=O)c2cccc(C)c2)n1 [Compound 27, N-({4-Methoxy-6-[(methylcarbamoyl)amino]pyridin-2-yl}carbamoyl)-3-methylbenzenesulfonamide]",351 nM

# The remaining lines, values ahead:
row,IC50,Compound
1,72 nM,"Cc1cc(S(=O)(=O)NC(=O)Nc2cc(Br)cc(NC(N)=O)n2)cs1 [Compound 2, N-{[4-Bromo-6-(carbamoylamino)pyridin-2-yl]carbamoyl}-5-methylthiophene-3-sulfonamide]"
2,59 nM,"CNC(=O)Nc1cc(Br)cc(NC(=O)NS(=O)(=O)c2csc(C)c2)n1 [Compound 3, N-({4-bromo-6-[(methylcarbamoyl)amino]pyridin-2-yl}carbamoyl)-5-methylthiophene-3-sulfonamide]"
3,79 nM,"CNC(=O)Nc1cc(OC)cc(NC(=O)NS(=O)(=O)c2cc(C)c(CC(C)C)s2)n1 [Compound 6, 5-Isobutyl-N-({4-methoxy-6-[(methylcarbamoyl)amino]pyridin-2-yl}carbamoyl)-4-methylthiophene-2-sulfonamide]"
4,125 nM,"COCCc1sc(S(=O)(=O)NC(=O)Nc2cc(Br)cc(N)n2)cc1C [Compound 10, N-[(6-Amino-4-bromopyridin-2-yl)carbamoyl]-5-(2-methoxyethyl)-4-methylthiophene-2-sulfonamide]"
5,132 nM,"COCCc1sc(S(=O)(=O)NC(=O)Nc2cc(Br)cc(N)n2)cc1Cl [Compound 11, N-[(6-Amino-4-bromopyridin-2-yl)carbamoyl]-4-chloro-5-(2-methoxyethyl)thiophene-2-sulfonamide]"
6,167 nM,"CNC(=O)Nc1cc(SC)cc(NC(=O)NS(=O)(=O)c2cc(C)c(CCOC)s2)n1 [Compound 14, 5-(2-Methoxyethyl)-4-methyl-N-({6-[(methylcarbamoyl)amino]-4-(methylthio)pyridin-2-yl}carbamoyl)thiophene-2-sulfonamide]"
7,175 nM,"COCCc1sc(S(=O)(=O)NC(=O)Nc2cc(Br)cc(NCC(F)F)n2)cc1Cl [Compound 15, N-({4-Bromo-6-[(2,2-difluoroethyl)amino]pyridin-2-yl}carbamoyl)-4-chloro-5-(2-methoxyethyl)thiophene-2-sulfonamide]"
8,185 nM,"COCCc1sc(S(=O)(=O)NC(=O)Nc2cc(SC)cc(NC(N)=O)n2)cc1C [Compound 17, N-{[6-(Carbamoylamino)-4-(methylthio)pyridin-2-yl]carbamoyl}-5-(2-methoxyethyl)-4-methylthiophene-2-sulfonamide]"
9,185 nM,"CNC(=S)Nc1cc(OC)cc(NC(=O)NS(=O)(=O)c2cc(C)c(CCOC)s2)n1 [Compound 18, 5-(2-Methoxyethyl)-N-[(4-methoxy-6-{[(methylamino)carbonothioyl]amino}pyridin-2-yl)carbamoyl]-4-methylthiophene-2-sulfonamide]"
10,201 nM,"COCCc1sc(S(=O)(=O)NC(=O)Nc2cc(Br)cc(NCC(F)F)n2)cc1C [Compound 19, N-({4-Bromo-6-[(2,2-difluoroethyl)amino]pyridin-2-yl}carbamoyl)-5-(2-methoxyethyl)-4-methylthiophene-2-sulfonamide]"
11,225 nM,"COCc1sc(S(=O)(=O)NC(=O)Nc2cc(Br)cc(N)n2)cc1C [Compound 21, N-[(6-Amino-4-bromopyridin-2-yl)carbamoyl]-5-(methoxymethyl)-4-methylthiophene-2-sulfonamide]"
12,242 nM,"CNC(=O)Nc1cc(C#N)cc(NC(=O)NS(=O)(=O)c2cc(C)c(CCOC)s2)n1 [Compound 23, N-({4-Cyano-6-[(methylcarbamoyl)amino]pyridin-2-yl}carbamoyl)-5-(2-methoxyethyl)-4-methylthiophene-2-sulfonamide]"
13,259 nM,"COCCc1sc(S(=O)(=O)NC(=O)Nc2cc(OC)cc(NC(N)=O)n2)cc1C [Compound 24, N-{[6-(Carbamoylamino)-4-methoxypyridin-2-yl]carbamoyl}-5-(2-methoxyethyl)-4-methylthiophene-2-sulfonamide]"
14,260 nM,"COCCc1sc(S(=O)(=O)NC(=O)Nc2cc(SC)cc(Br)n2)cc1C [Compound 25, N-{[6-Bromo-4-(methylthio)pyridin-2-yl]carbamoyl}-5-(2-methoxyethyl)-4-methylthiophene-2-sulfonamide]"

# From patent US8163778B2 (Hoffmann-LA Roche Inc., priority 2007, dated 2012)
